Assay results as given in BindingDB's records for PubMed 40236523 (Emory University).
Counter-ions that a name gives are not always drawn. Where a SMILES comes first, the peptide text is derived from it. Bridges are numbered along the chain shown (N, C = ends). [ ]: non-standard residue; d: D form. The star is where a group is joined. Trp(7-Me) = Cc1cccc2c(C[C@H](N)C(=O)O)c[nH]c12; Lys(Me3) = C[N+](C)(C)CCCC[C@H](N)C(=O)O; 2Nal = N[C@@H](Cc1ccc2ccccc2c1)C(=O)O; AEF = NCCOc1ccc(C[C@H](N)C(=O)O)cc1; 3Pal = N[C@@H](Cc1cccnc1)C(=O)O; Lys(Me) = CNCCCC[C@H](N)C(=O)O; Pen = CC(C)(S)[C@H](N)C(=O)O; Thp = NC1(C(=O)O)CCOCC1; Me2NCH2CH2 = CN(C)CC*; Tfa = O=C(C(F)(F)F)*; Sar = CNCC(=O)O

target: Signal transducer and activator of transcription 3 (Homo sapiens, UniProt P40763); experiment: Inhibition of STAT3 phosphorylation in human PBMC cells preincubated for 30 mins followed by addition of IL-23 and measured after 10 mins
Sequence (P40763 whole entry): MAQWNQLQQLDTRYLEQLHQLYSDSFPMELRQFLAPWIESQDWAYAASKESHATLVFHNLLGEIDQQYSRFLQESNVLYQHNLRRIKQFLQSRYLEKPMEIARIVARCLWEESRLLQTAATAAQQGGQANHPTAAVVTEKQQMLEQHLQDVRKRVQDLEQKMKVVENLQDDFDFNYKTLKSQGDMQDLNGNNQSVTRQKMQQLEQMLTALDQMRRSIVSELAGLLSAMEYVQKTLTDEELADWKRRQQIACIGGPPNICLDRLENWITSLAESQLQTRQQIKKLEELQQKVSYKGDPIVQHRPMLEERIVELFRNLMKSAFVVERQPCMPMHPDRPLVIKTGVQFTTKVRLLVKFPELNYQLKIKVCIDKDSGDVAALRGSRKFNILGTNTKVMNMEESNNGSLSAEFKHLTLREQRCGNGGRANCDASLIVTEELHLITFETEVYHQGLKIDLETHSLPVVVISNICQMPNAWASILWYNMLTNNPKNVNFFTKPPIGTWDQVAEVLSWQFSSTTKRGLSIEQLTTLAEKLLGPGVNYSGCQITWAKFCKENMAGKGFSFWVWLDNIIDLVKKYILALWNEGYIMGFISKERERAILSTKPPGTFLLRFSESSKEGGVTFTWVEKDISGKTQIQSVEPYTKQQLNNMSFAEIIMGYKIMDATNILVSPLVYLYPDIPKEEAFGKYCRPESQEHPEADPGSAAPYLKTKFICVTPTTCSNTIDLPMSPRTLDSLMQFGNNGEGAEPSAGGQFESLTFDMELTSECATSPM

| IC50 [pM] | Structure (SMILES) |
| --- | --- |
| 8 | CC(=O)NCCCC[C@@H]1NC(=O)[C@H](Cc2c[nH]c3c(C)cccc23)NC(=O)[C@H]([C@@H](C)O)NC(=O)[C@H](CC(N)=O)NC(=O)[C@@H](NC(C)=O)C(C)(C)SSC(C)(C)[C@@H](C(=O)N[C@@H](Cc2ccc(OCCCCC[N+](C)(C)C)cc2)C(=O)N[C@@H](Cc2ccc3ccccc3c2)C(=O)NC2(C(=O)N[C@@H](CCCCNC(C)=O)C(=O)N[C@@H](CC(N)=O)C(=O)N[C@@H](Cc3cccnc3)C(=O)N(C)CC(N)=O)CCOCC2)NC1=O |
| 8 | Cc1cccc2c(C[C@@H]3NC(=O)[C@H]([C@@H](C)O)NC(=O)[C@H](CC(N)=O)NC(=O)[C@@H](NC(=O)C(F)(F)F)C(C)(C)SSC(C)(C)[C@@H](C(=O)N[C@@H](Cc4ccc(OCCN)cc4)C(=O)N[C@@H](Cc4ccc5ccccc5c4)C(=O)NC4(C(=O)N[C@@H](CCC(=O)N(C)C)C(=O)N[C@@H](CC(N)=O)C(=O)N[C@@H](Cc5cccnc5)C(=O)N(C)CC(N)=O)CCOCC4)NC(=O)[C@H](CCC(=O)N(C)C)NC3=O)c[nH]c12 (Tfa-[Pen]NT[Trp(7-Me)]E(NMe2)[Pen][AEF][2Nal][Thp]E(NMe2)N[3Pal][Sar]-NH2; disulfide 1-6) |
| 6 | CC(=O)NCCCC[C@@H]1NC(=O)[C@H](Cc2c[nH]c3c(C)cccc23)NC(=O)[C@H]([C@@H](C)O)NC(=O)[C@H](CC(N)=O)NC(=O)[C@@H](NC(=O)CCOCCOCC[N+](C)(C)C)C(C)(C)SSC(C)(C)[C@@H](C(=O)N[C@@H](Cc2ccc(OCCN)cc2)C(=O)N[C@@H](Cc2ccc3ccccc3c2)C(=O)NC2(C(=O)N[C@@H](CCC(=O)O)C(=O)N[C@@H](CC(N)=O)C(=O)N[C@@H](Cc3cccnc3)C(=O)N(C)CC(N)=O)CCOCC2)NC1=O |
| 3 | CC(=O)N(C)CCCC[C@@H]1NC(=O)[C@H](Cc2c[nH]c3c(C)cccc23)NC(=O)[C@H]([C@@H](C)O)NC(=O)[C@H](CC(=O)N(C)C)NC(=O)[C@@H](NC(=O)C(F)(F)F)C(C)(C)SSC(C)(C)[C@@H](C(=O)N[C@@H](Cc2ccc(OCCN(C)C)cc2)C(=O)N[C@@H](Cc2ccc3ccccc3c2)C(=O)NC2(C(=O)N[C@@H](CCC(=O)O)C(=O)N[C@@H](CC(N)=O)C(=O)N[C@@H](Cc3cccnc3)C(=O)N(C)CC(=O)N(C)C)CCOCC2)NC1=O (Tfa-[Pen]D(NMe2)T[Trp(7-Me)][Lys(Me)](Ac)[Pen]Y(Me2NCH2CH2)[2Nal][Thp]EN[3Pal][Sar]-NMe2; disulfide 1-6) |
| 8 | CC(=O)N[C@@H](CCCC[N+](C)(C)C)C(=O)N[C@@H]1C(=O)N[C@@H](CC(=O)N(C)C)C(=O)N[C@@H]([C@@H](C)O)C(=O)N[C@@H](Cc2c[nH]c3c(C)cccc23)C(=O)N[C@@H](CCCCN(C)C(C)=O)C(=O)N[C@H](C(=O)N[C@@H](Cc2ccc(OCCN(C)C)cc2)C(=O)N[C@@H](Cc2ccc3ccccc3c2)C(=O)NC2(C(=O)N[C@@H](CCC(=O)O)C(=O)N[C@@H](CC(N)=O)C(=O)N[C@@H](Cc3cccnc3)C(=O)N(C)CC(=O)N(C)C)CCOCC2)C(C)(C)SSC1(C)C (Ac-[Lys(Me3)][Pen]D(NMe2)T[Trp(7-Me)][Lys(Me)](Ac)[Pen]Y(Me2NCH2CH2)[2Nal][Thp]EN[3Pal][Sar]-NMe2; disulfide 2-7) |
